The values below come from patent publication KR20210056931A, “피리메타민을 유효성분으로 포함하는 면역 관련 질환의 치료 또는 예방용 약학 조성물” (priority 2019, dated 2021).

Several values for one entry are separate records, joined by “and”; a condition that tells them apart may be missing. Equal entries are not always repeated.

Assay [1] has as its system TNF-α. In words: TNF-α expression inhibition in Raw264.7, comparison with DMARDs, Experiment 2-1. It is filed as cell-based. Conditions: 6 h pretreatment, LPS 10 ng/mL, MTX 344 nM, HCQ 610 nM, PYR 50 ng/mL, CsA 391 ng/mL, AZA 25 ng/mL, SFZ 750 ng/mL.
In assay [2] the test system is TNF-α. In words: TNF-α expression inhibition in Raw264.7, comparison with hydroxychloroquine and proguanil, Experiment 2-3. It is filed as cell-based. To be noted: PY 0.2 uM, HCQ 0.61 uM, PG 5 uM; LPS 10 ng/mL, 24 h co-treatment.
A further assay has as its system STAT3. Nature of the assay: STAT3 activity (nuclear translocation) in Raw264.7, Experiment 3. The format is cell-based. Conditions: 50 ng/ml, 2 h pretreatment; LPS 100 ng/ml 16 h; Fig. 6.
The subject of assay [3] is rheumatoid arthritis model, DBA-1J Mice [류마티스 관절염 모델]. Nature of the assay: Arthritis score in rheumatoid arthritis animal model, dose regimen study, Experiment 6. Conditions: HCQ 80 mg/kg/day QD PO, PG 25 mg/kg/day QD PO; for Arthritis score: MTX 2 mg/kg/2day PO, TFC 10 mg/kg/day BID PO (G3-G6). The format is in vivo, mouse.
Assay [4] has the same test system. In words: Paw edema in rheumatoid arthritis animal model, dose regimen study, Experiment 6. It is filed as in vivo, mouse. To be noted: Day 14, MTX 2 mg/kg/2day PO, HCQ 80 mg/kg/day QD PO, PG 25 mg/kg/day QD PO, TFC 10 mg/kg/day BID PO (G3-G6).
Assay [5] has the same test system. In words: Histopathological examination in rheumatoid arthritis animal model, dose regimen study, Experiment 6. To be noted: Day 14; MTX 2 mg/kg/2day PO, HCQ 80 mg/kg/day QD PO, PG 25 mg/kg/day QD PO, TFC 10 mg/kg/day BID PO (G3-G6). It is filed as in vivo, mouse.
Assay [6] has as its system TNF-α. Nature of the assay: Plasma TNF-α (ELISA), Experiment 6-5. The format is in vivo, mouse. Background: In an ELISA, binding on a coated surface is turned into a signal by an enzyme label.

`CCN(CCO)CCCC(C)Nc1ccnc2cc(Cl)ccc12` (stereo not shown) [히드록시클로로퀸, Hydroxychloroquine]: the TNF-α expression in the assay on TNF-α [1] (2hr) is on record as 339.5 pg/mL; with TNF-α [1] (24hr), 3564.6 pg/mL; with TNF-α [2] it was 762.2. Moreover, in the assay on STAT3, the STAT3 nuclear translocation entry is listed as “LPS 16 시간 자극에 의한 STAT3의 핵이동을 억제함”. Besides, the Arthritis score was 2.5±1.2 total score in assay [3] (Day 0); 4.0±0.6 total score in assay [3] (Day 2); 6.5±0.8 total score in assay [3] (Day 5); 9.3±2.0 total score in assay [3] (Day 7); 10.3±2.1 total score in assay [3] (Day 9); 11.3±2.5 total score in assay [3] (Day 12). The Arthritis score in assay [3] (Day 14) is listed as 12.0±2.8 total score. Besides, the “Arthritis score (in words)” value in assay [3] (TFC 10 mg/kg/day BID PO) is on record as “관절염 지수가 개선되지 않았다”. For the same compound, the “Paw edema, HL, mean” value in assay [4] is reported as 0.17 mL. The “Paw edema, HR, mean” value in assay [4] was found to be 0.16 mL. Also, the “Paw edema, HL, individual animal” value in assay [4] (listed as HCQ) is 0.17 mL and 0.13 mL and 0.19 mL and 0.15 mL and 0.16 mL. The “Paw edema, HR, individual animal” value in assay [4] (listed as HCQ) is 0.19 mL and 0.15 mL and 0.13 mL and 0.16 mL and 0.18 mL and 0.14 mL. In assay [5], the Bone destruction was 2.7±0.5. The compound further returned a Cartilage damage in assay [5] of 2.0±1.1. The “Histopathological examination, total” value in assay [5] worked out at 7.7±1.5. For the same compound, in assay [5], the Synovium proliferation turned out to be 3.0±0.0. Also, the “Plasma TNF-α” value in the assay with TNF-α [6] (Day 14, MTX 2 mg/kg/2day PO, HCQ 80 mg/kg/day QD PO, PG 25 mg/kg/day QD PO, TFC 10 mg/kg/day BID PO (G3-G6)) turned out to be 839.5 pg/mL. Moreover, the “Plasma TNF-α (in words)” value in the assay on TNF-α [6] (HCQ, PG, TFC groups) is recorded as “혈장 TNF-α가 감소하지 않은”.
